Assay results published in PubChem BioAssay (NCI).
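1) Cells in 96-well plates. 2) Compound, 48 h, 5 concentrations. 3) Linear interpolation between surrounding doses. 4) Unreached endpoint = highest concentration. GI50 is the concentration that inhibits growth by half. TGI: total growth inhibition.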

Columns and labels:
Assay in all cases: DTP human tumour cell line panel, 48 h
[1] = system: SK-MEL-2 melanoma
[2] = system: 786-0 renal
[3] = system: MCF7 breast
[4] = system: SNB-19 CNS
[5] = system: IGROV1 ovarian
[6] = system: MOLT-4 leukemia
[7] = system: HS 578T breast
[8] = system: HT29 colon
[9] = system: SNB-75 CNS
[10] = system: K-562 leukemia
[11] = system: A549 NSCLC
[12] = system: OVCAR-5 ovarian
[13] = system: DU-145 prostate
[14] = system: SF-268 CNS
[15] = system: NCI-H23 lung
[16] = system: CAKI-1 renal
[17] = system: SW-620 colon
[18] = system: SK-OV-3 ovarian
[19] = system: SF-539 CNS
[20] = system: T-47D breast
[21] = system: SR leukemia
[22] = system: HCT-15 colon
[23] = system: MALME-3M melanoma
[24] = system: HCC-2998 colon
[25] = system: KM12 colon
[26] = system: SN12C renal
[27] = system: M14 melanoma
[28] = system: PC-3 prostate
[29] = system: NCI-H522 lung
[30] = system: TK-10 renal
[31] = system: HOP-92 NSCLC
[32] = system: BT-549 breast
[33] = system: SK-MEL-28 melanoma
[34] = system: EKVX NSCLC
[35] = system: MDA-MB-435
[36] = system: SF-295 CNS
[37] = system: HL-60(TB) leukemia
[38] = system: ACHN renal
[39] = system: A498 renal
[40] = system: CCRF-CEM leukemia
[41] = system: LOX IMVI melanoma
[42] = system: SK-MEL-5 melanoma
[43] = system: OVCAR-8 ovarian
[44] = system: COLO 205 colon
[45] = system: UACC-62 melanoma
[46] = system: RPMI-8226 leukemia
[47] = system: NCI-H226 lung
[48] = system: U251 CNS
[49] = system: UACC-257 melanoma
[50] = system: HOP-62 NSCLC
[51] = system: MDA-MB-231 breast

SMILES: CSc1nn2c(-c3ccc4ccccc4c3)ccnc2c1C#N
- GI50 [1]: 874 nM
- TGI [1]: > 100000 nM
- GI50 [2]: 2110 nM
- TGI [2]: > 100000 nM
- GI50 [3]: 1300 nM
- TGI [3]: > 100000 nM
- GI50 [4]: 1220 nM
- TGI [4]: > 100000 nM
- GI50 [5]: 763 nM
- TGI [5]: > 100000 nM
- GI50 [6]: 668 nM
- TGI [6]: > 100000 nM
- GI50 [7]: 1050 nM
- TGI [7]: > 100000 nM
- GI50 [8]: 454 nM
- TGI [8]: > 100000 nM
- GI50 [9]: 197 nM
- TGI [9]: 1510 nM
- GI50 [10]: 306 nM
- TGI [10]: > 100000 nM
- GI50 [11]: 828 nM
- TGI [11]: > 100000 nM
- GI50 [12]: 5140 nM
- TGI [12]: > 100000 nM
- GI50 [13]: 6990 nM
- TGI [13]: > 100000 nM
- GI50 [14]: 1290 nM
- TGI [14]: > 100000 nM
- GI50 [15]: 2040 nM
- TGI [15]: > 100000 nM
- GI50 [16]: 550 nM
- TGI [16]: > 100000 nM
- GI50 [17]: 428 nM
- TGI [17]: > 100000 nM
- GI50 [18]: 2200 nM
- TGI [18]: > 100000 nM
- GI50 [19]: 1300 nM
- TGI [19]: 64800 nM
- GI50 [20]: 4050 nM
- TGI [20]: > 100000 nM
- GI50 [21]: 343 nM
- TGI [21]: > 100000 nM
- GI50 [22]: 390 nM
- TGI [22]: > 100000 nM
- GI50 [23]: 663 nM
- TGI [23]: 44500 nM
- GI50 [24]: 6020 nM
- TGI [24]: > 100000 nM
- GI50 [25]: 490 nM
- TGI [25]: > 100000 nM
- GI50 [26]: 857 nM
- TGI [26]: > 100000 nM
- GI50 [27]: 390 nM
- TGI [27]: 27400 nM
- GI50 [28]: 2980 nM
- TGI [28]: > 100000 nM
- GI50 [29]: 442 nM
- TGI [29]: > 100000 nM
- GI50 [30]: 5090 nM
- TGI [30]: > 100000 nM
- GI50 [31]: 1710 nM
- TGI [31]: 6550 nM
- GI50 [32]: 2290 nM
- TGI [32]: > 100000 nM
- GI50 [33]: 1160 nM
- TGI [33]: > 100000 nM
- GI50 [34]: 3040 nM
- TGI [34]: > 100000 nM
- GI50 [35]: 229 nM
- TGI [35]: 641 nM
- GI50 [36]: 1780 nM
- TGI [36]: > 100000 nM
- GI50 [37]: 668 nM
- TGI [37]: > 100000 nM
- GI50 [38]: 1140 nM
- TGI [38]: > 100000 nM
- GI50 [39]: 176 nM
- TGI [39]: 897 nM
- GI50 [40]: 7510 nM
- TGI [40]: > 100000 nM
- GI50 [41]: 754 nM
- TGI [41]: > 100000 nM
- GI50 [42]: 693 nM
- TGI [42]: > 100000 nM
- GI50 [43]: 944 nM
- TGI [43]: > 100000 nM
- GI50 [44]: 727 nM
- TGI [44]: > 100000 nM
- GI50 [45]: 439 nM
- TGI [45]: 6510 nM
- GI50 [46]: 599 nM
- TGI [46]: > 100000 nM
- GI50 [47]: 2810 nM
- TGI [47]: > 100000 nM
- GI50 [48]: 989 nM
- TGI [48]: > 100000 nM
- GI50 [49]: 6930 nM
- TGI [49]: > 100000 nM
- GI50 [50]: 1090 nM
- TGI [50]: > 100000 nM
- GI50 [51]: 1110 nM
- TGI [51]: 5880 nM
